Results as given in patent US11091529B2, “Peptides having reduced toxicity that stimulate cholesterol efflux” (The Regents of the University of California, priority 2014, dated 2021).
Where no end group is shown, it is not given here.

Test system: male, chow-fed C57Bl/6 mice
Test: Safety and TG elevating effects after IP injection of peptides (plasma CPK, ALT, AST, TG)
Settings: 300 mg/kg IP; for muscle toxicity as judged by CPK activity in plasma: compared with ATI-5261
Excerpt: Since the position of positively charged amino acids near the lipid-water interface of class A α-helices is thought to mediate membrane interactions, we tested whether inverting the positions of positive and negative residues within ATI-5261 lessened the toxic response of the peptide at high doses. Panel A—Helical-wheel and net diagrams of ATI-5261 showing the positions of positively charged lysine (K) and arginine (R) at the lipid interface of the amphipathic α-helix (i.e. helical wheel diagrams on left). […] Plasma CPK, ALT, AST and TG (table) were assessed after 4 h. Values and means±SD, n=4.
Panel A—The positions of charged amino acids within the LeuATI-5261 peptide were switched to move the positive lysine and arginine residues away from the lipid-water interface of the amphipathic α-helix. Panel B— Safety and TG elevating effects were evaluated by injecting (IP) peptides (300 mg/kg) into male, chow-fed C57Bl/6 mice. Values are means SD, n=4. […] J774 macrophages were labeled with [3H]cholesterol and treated with (red, right side bars) and without (blue, left side bars) cAMP to modulate ABCA1 expression.
Panel A—Safety and TG elevating effects were evaluated by injecting (IP) peptides (300 mg/kg) into male, chow-fed C57Bl/6 mice. Values are means SD, n=4. […] Panel B-ABCA1-dependent cholesterol efflux activity of peptides determined using J774 macrophages labeled with [3H]cholesterol. Results are expressed as the ABCA1 component of efflux.
Peptides or peptidomeimetics of the invention can be evaluated for toxicity using known assays. […] Safety chemistry panels including plasma alanine aminotransferase (ALT), aspartate amino transferase (AST), and creatine kinase (CK) can then be determined in the blood. […]
Since the position of positively charged amino acids near the lipid-water interface of class A α-helices is thought to mediate membrane interactions, we tested whether inverting the positions of positive and negative residues within ATI-5261 lessened the toxic response of the peptide at high doses. […] Plasma CPK, ALT, AST and TG (table) were assessed after 4 h as described in FIGS. 4-6. […]

Row | Sequence | muscle toxicity as judged by CPK activity in plasma | cytotoxicity (plasma CPK, ALT, AST) (plasma after 4 h, n=4)
1 | EVRSKLEEWFAAFREFAEEFLARL [T5766-5] | greatly reduced muscle toxicity | 
2 | EVRSKLEEWFAAFREFAEEFLARLNS [T5594-4] | greatly reduced muscle toxicity | 
3 | KVESELREWLAALEKLARRLLAELES [T6023-2] |  | no increase in muscle toxicity or elevated plasma enzymes compared to vehicle alone
